# Measurements taken from PubChem BioAssay (NCI).
#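 Five compound concentrations were applied to cells in 96-well plates for 48 hours; endpoints were derived by simple linear interpolation of the resulting dose-response curve. Definition used: TGI = concentration required for complete inhibition of growth.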
# Key:
# Assay in all cases: inhibition of tumour cell growth, NCI panel, 48 h
# 786-0 renal = system: 786-0 renal
# A549 NSCLC = system: A549 NSCLC
# ACHN renal = system: ACHN renal
# BT-549 breast = system: BT-549 breast
# CAKI-1 renal = system: CAKI-1 renal
# CCRF-CEM leukemia = system: CCRF-CEM leukemia
# COLO 205 colon = system: COLO 205 colon
# DU-145 prostate = system: DU-145 prostate
# EKVX NSCLC = system: EKVX NSCLC
# HCC-2998 colon = system: HCC-2998 colon
# HCT-116 colon = system: HCT-116 colon
# HCT-15 colon = system: HCT-15 colon
# HL-60(TB) leukemia = system: HL-60(TB) leukemia
# HOP-62 NSCLC = system: HOP-62 NSCLC
# HOP-92 NSCLC = system: HOP-92 NSCLC
# HS 578T breast = system: HS 578T breast
# HT29 colon = system: HT29 colon
# IGROV1 ovarian = system: IGROV1 ovarian
# K-562 leukemia = system: K-562 leukemia
# LOX IMVI melanoma = system: LOX IMVI melanoma
# M14 melanoma = system: M14 melanoma
# MALME-3M melanoma = system: MALME-3M melanoma
# MCF7 breast = system: MCF7 breast
# MDA-MB-231 breast = system: MDA-MB-231 breast
# MDA-MB-435 = system: MDA-MB-435
# MDA-N = system: MDA-N
# MOLT-4 leukemia = system: MOLT-4 leukemia
# NCI-H226 lung = system: NCI-H226 lung
# NCI-H23 lung = system: NCI-H23 lung
# NCI-H460 lung = system: NCI-H460 lung
# NCI-H522 lung = system: NCI-H522 lung
# NCI/ADR-RES ovarian = system: NCI/ADR-RES ovarian
# OVCAR-3 ovarian = system: OVCAR-3 ovarian
# OVCAR-4 ovarian = system: OVCAR-4 ovarian
# OVCAR-5 ovarian = system: OVCAR-5 ovarian
# OVCAR-8 ovarian = system: OVCAR-8 ovarian
# PC-3 prostate = system: PC-3 prostate
# RPMI-8226 leukemia = system: RPMI-8226 leukemia
# SF-268 CNS = system: SF-268 CNS
# SF-295 CNS = system: SF-295 CNS
# SF-539 CNS = system: SF-539 CNS
# SK-MEL-2 melanoma = system: SK-MEL-2 melanoma
# SK-MEL-28 melanoma = system: SK-MEL-28 melanoma
# SK-OV-3 ovarian = system: SK-OV-3 ovarian
# SN12C renal = system: SN12C renal
# SNB-19 CNS = system: SNB-19 CNS
# SNB-75 CNS = system: SNB-75 CNS
# SR leukemia = system: SR leukemia
# SW-620 colon = system: SW-620 colon
# TK-10 renal = system: TK-10 renal
# U251 CNS = system: U251 CNS
# UACC-257 melanoma = system: UACC-257 melanoma
# UACC-62 melanoma = system: UACC-62 melanoma
# UO-31 renal = system: UO-31 renal
# A498 renal = system: A498 renal
# KM12 colon = system: KM12 colon
# SK-MEL-5 melanoma = system: SK-MEL-5 melanoma
structure (smiles),measurement,setting,value
C=C1C[C@]23CC[C@@H]4C(CO)(CO)CC(=O)C[C@]4(C)[C@@H]2CC[C@H]1C3,TGI,786-0 renal,> 100 µM
same,TGI,A549 NSCLC,> 100 µM
same,TGI,ACHN renal,> 100 µM
same,TGI,BT-549 breast,> 100 µM
same,TGI,CAKI-1 renal,> 100 µM
same,TGI,CCRF-CEM leukemia,> 100 µM
same,TGI,COLO 205 colon,> 100 µM
same,TGI,DU-145 prostate,> 100 µM
same,TGI,EKVX NSCLC,> 100 µM
same,TGI,HCC-2998 colon,> 100 µM
same,TGI,HCT-116 colon,> 100 µM
same,TGI,HCT-15 colon,> 100 µM
same,TGI,HL-60(TB) leukemia,> 100 µM
same,TGI,HOP-62 NSCLC,> 100 µM
same,TGI,HOP-92 NSCLC,> 100 µM
same,TGI,HS 578T breast,> 100 µM
same,TGI,HT29 colon,> 100 µM
same,TGI,IGROV1 ovarian,> 100 µM
same,TGI,K-562 leukemia,> 100 µM
same,TGI,LOX IMVI melanoma,> 100 µM
same,TGI,M14 melanoma,> 100 µM
same,TGI,MALME-3M melanoma,> 100 µM
same,TGI,MCF7 breast,> 100 µM
same,TGI,MDA-MB-231 breast,> 100 µM
same,TGI,MDA-MB-435,> 100 µM
same,TGI,MDA-N,> 100 µM
same,TGI,MOLT-4 leukemia,> 100 µM
same,TGI,NCI-H226 lung,> 100 µM
same,TGI,NCI-H23 lung,> 100 µM
same,TGI,NCI-H460 lung,> 100 µM
same,TGI,NCI-H522 lung,> 100 µM
same,TGI,NCI/ADR-RES ovarian,> 100 µM
same,TGI,OVCAR-3 ovarian,> 100 µM
same,TGI,OVCAR-4 ovarian,> 100 µM
same,TGI,OVCAR-5 ovarian,> 100 µM
same,TGI,OVCAR-8 ovarian,> 100 µM
same,TGI,PC-3 prostate,> 100 µM
same,TGI,RPMI-8226 leukemia,> 100 µM
same,TGI,SF-268 CNS,> 100 µM
same,TGI,SF-295 CNS,> 100 µM
same,TGI,SF-539 CNS,> 100 µM
same,TGI,SK-MEL-2 melanoma,> 100 µM
same,TGI,SK-MEL-28 melanoma,> 100 µM
same,TGI,SK-OV-3 ovarian,> 100 µM
same,TGI,SN12C renal,> 100 µM
same,TGI,SNB-19 CNS,35.9 µM
same,TGI,SNB-75 CNS,> 100 µM
same,TGI,SR leukemia,> 100 µM
same,TGI,SW-620 colon,> 100 µM
same,TGI,TK-10 renal,> 100 µM
same,TGI,U251 CNS,> 100 µM
same,TGI,UACC-257 melanoma,> 100 µM
same,TGI,UACC-62 melanoma,> 100 µM
same,TGI,UO-31 renal,> 100 µM
COc1cccc(NC(=O)CC(=O)Nc2cccc(OC)c2)c1,TGI,786-0 renal,> 100 µM
same,TGI,A498 renal,> 100 µM
same,TGI,A549 NSCLC,> 100 µM
same,TGI,ACHN renal,> 100 µM
same,TGI,BT-549 breast,> 100 µM
same,TGI,CAKI-1 renal,> 100 µM
same,TGI,CCRF-CEM leukemia,> 100 µM
same,TGI,COLO 205 colon,> 100 µM
same,TGI,DU-145 prostate,> 100 µM
same,TGI,EKVX NSCLC,> 100 µM
same,TGI,HCC-2998 colon,> 100 µM
same,TGI,HCT-116 colon,> 100 µM
same,TGI,HCT-15 colon,> 100 µM
same,TGI,HL-60(TB) leukemia,> 100 µM
same,TGI,HOP-62 NSCLC,> 100 µM
same,TGI,HOP-92 NSCLC,> 100 µM
same,TGI,HS 578T breast,> 100 µM
same,TGI,HT29 colon,> 100 µM
same,TGI,IGROV1 ovarian,> 100 µM
same,TGI,K-562 leukemia,> 100 µM
same,TGI,KM12 colon,> 100 µM
same,TGI,LOX IMVI melanoma,> 100 µM
same,TGI,M14 melanoma,> 100 µM
same,TGI,MALME-3M melanoma,> 100 µM
same,TGI,MCF7 breast,> 100 µM
same,TGI,MDA-MB-231 breast,> 100 µM
same,TGI,MDA-MB-435,> 100 µM
same,TGI,MDA-N,> 100 µM
same,TGI,MOLT-4 leukemia,> 100 µM
same,TGI,NCI-H226 lung,> 100 µM
same,TGI,NCI-H23 lung,> 100 µM
same,TGI,NCI-H460 lung,> 100 µM
same,TGI,NCI-H522 lung,> 100 µM
same,TGI,NCI/ADR-RES ovarian,> 100 µM
same,TGI,OVCAR-3 ovarian,> 100 µM
same,TGI,OVCAR-4 ovarian,> 100 µM
same,TGI,OVCAR-8 ovarian,> 100 µM
same,TGI,PC-3 prostate,> 100 µM
same,TGI,RPMI-8226 leukemia,> 100 µM
same,TGI,SF-268 CNS,> 100 µM
same,TGI,SF-295 CNS,> 100 µM
same,TGI,SF-539 CNS,> 100 µM
same,TGI,SK-MEL-2 melanoma,> 100 µM
same,TGI,SK-MEL-28 melanoma,> 100 µM
same,TGI,SK-MEL-5 melanoma,> 100 µM
same,TGI,SK-OV-3 ovarian,> 100 µM
same,TGI,SN12C renal,> 100 µM
same,TGI,SNB-19 CNS,> 100 µM
same,TGI,SR leukemia,> 100 µM
same,TGI,SW-620 colon,> 100 µM
same,TGI,TK-10 renal,> 100 µM
same,TGI,U251 CNS,> 100 µM
same,TGI,UACC-257 melanoma,> 100 µM
same,TGI,UACC-62 melanoma,> 100 µM
same,TGI,UO-31 renal,> 100 µM
